US20220249534A1, “METHOD OF TREATING CANCER WITH NUCLEOTIDE THERAPEUTICS” (Massachusetts Institute of Technology, priority 2021, published 2022)
pIC50: −log10 of the molar value. Like-named read-outs stand apart in the source and are kept apart here.

Legend:
[1] = system: A549 cells; assay: Proliferation rate of A549 cells with added single nucleoside/base; assay type: cell-based, human; settings: for pIC50: Homo sapiens
Protocol: (§1) This effect was dose-titratable over a 0.1 mM to 2.0 mM range, with increasing concentrations of multiple single nucleotides completely preventing cell proliferation.
(§2) In Table 1, the approximate concentration of each nucleotide that when added slows the proliferation of the indicated cells by half is shown.
(§3) All adherent and human leukemia cell lines were cultured in DMEM or RPMI supplemented with 10% heat inactivated fetal bovine serum at 37° C. with 5% CO2. The Lys-GFP-ER-HoxA9 63.3 cells were cultured in RPMI supplemented with 10% fetal bovine serum, stem cell factor, and beta-estradiol as described previously (Sykes et al., (2016), Cell. 167(1): 171-186.e15). All cell lines regularly tested negative for mycoplasma.
(§4) To assess proliferation, the number of cells seeded for each cell line allowed for exponential growth over the course of the assay. To assess effects of nucleotide treatment, cells were washed three times with PBS and 4 mL of treatment media was added one day after plating cells. The following formula was used to calculate proliferation rate:
(§5) Doublings per day=[Log2(Final day 4 cell count/Initial day 0 cell count)]/4 days

[2] = system: A2780 cells; assay: Proliferation rate of A2780 cells with added single nucleoside/base; assay type: cell-based; settings: Homo sapiens
Protocol: as §1, §2, §3, §4, §5

[3] = system: H1299 cells; assay: Proliferation rate of H1299 cells with added single nucleoside/base; assay type: cell-based; settings: Homo sapiens
Protocol: as §1, §2, §3, §4, §5

[4] = system: MDA-MB-468 cells; assay: Proliferation rate of MDA-MB-468 cells with added single nucleoside/base; assay type: cell-based; settings: Homo sapiens
Protocol: as §1, §2, §3, §4, §5

[5] = system: 143B cells; assay: Proliferation rate of 143B cells with added single nucleoside/base; assay type: cell-based; settings: Homo sapiens, read-out: Added nucleoside/base concentration that slows proliferation by half
Protocol: as §1, §2, §3, §4, §5

[6] = Comet tail assay of DNA damage; assay type: cell-based; settings: 24 hours; small fraction of treated cells
From the text: The cancer cell is contacted with that amount of purine, purine precursor, purine analog, pyrimidine, pyrimidine precursor, and/or pyrimidine which, once entering the cell, changes the cell's internal baseline purine:pyrimidine ratio and induces replication stress in the cell. The induction of replication stress can be measured, in any way known in the art, e.g., with the Comet assay which measures DNA damage. In this assay, cells are mixed in low melting point agarose on a microscope slide and are lysed with a detergent, e.g., 1% N-lauryl sarcosine, 0.5% Triton X-100, DMSO, and high salt, e.g., 2.5 M NaCl, 0.1 M EDTA and 10 mM Tris, to form nucleoids containing supercoiled loops of DNA that are linked to the nuclear matrix. After electrophoresis at high pH structures can be observed resembling comets, visualized by fluorescence microscopy. The intensity of the comet tail relative to the head is proportional to the number of breaks in the DNA. Comets can be scored with dedicated software such as, but not limited to, CaspLab software or OpenComet software.

[7] = system: Chk1 and Chk2; assay: Replication stress signaling: phosphorylation of ATR/ATM targets Chk1 and Chk2; assay type: cell-based; settings: stronger signaling at higher concentrations
From the text: To determine if nucleotide imbalance causes replication stress in a cancer cell, targets of the ATR and ATM kinases were examined after the addition of a nucleotide to change the internal nucleotide ratio. The ATR and ATM kinases are components of the cellular response to DNA damage, and sense single-stranded DNA and DNA double-strand breaks, respectively. The respective targets of ATR and ATM, Chk1 and Chk2, are major effectors of the DNA damage response. […] The appearance of p-Chk1 occurred first between 12 hours and 24 hours of guanine treatment, followed by the appearance of p-Chk2 between 48 hours and 72 hours. Induction of the replication stress response was reversed by addition of adenine together with guanine. A similar induction of ATR and ATM signaling occurred with any excess nucleotide supplementation that impaired S phase progression, but not with leucine deprivation, consistent with impaired DNA replication. Inhibiting total purine or pyrimidine synthesis induced phosphorylation of Chk1 and Chk2 but to a lesser extent than Guanosine treatment.

[8] = system: U2OS cells; assay: Proliferation rate of U2OS cells with added single nucleoside/base; assay type: cell-based; settings: Homo sapiens, read-out: Added nucleoside/base concentration that slows proliferation by half
Protocol: as §1, §2, §3, §4, §5

[9] = system: A549 cells; assay: LCMS analysis of intracellular nucleotide levels in A549 cells; assay type: cell-based, human
Protocol: Where indicated, cells were incubated in media with 4 mM ^15N-amide-glutamine and/or 200 μM ^13C-guanine or ^13C-adenine for 24 hours prior to LCMS Analysis of metabolites. For assessment of metabolites, cells were washed three times with PBS prior to extracting polar metabolites from cells: plates were placed on ice, cells were washed with ice-cold blood bank saline, and 500 μl of ice-cold 80% methanol in water with 250 nM ^13C/^15N labeled amino acid standards (MSK-A2-1.2: Cambridge Isotope Laboratories, Inc.) was added to each well. Cells were scraped, each sample was vortexed for 10 minutes at 4° C., and then centrifuged at maximum speed for 10 minutes at 4° C. Samples were dried under nitrogen gas and resuspended in 25 μl of a 50/50 acetonitrile/water mixture. Metabolites were measured using a Dionex UltiMate 3000 ultra-high performance liquid chromatography system connected to a Q Exactive benchtop Orbitrap mass spectrometer, equipped with an Ion Max source and a HESI II probe (Thermo Fisher Scientific). […]
Metabolites were monitored in full-scan, polarity-switching, mode. […] Relative quantitation of metabolites was performed with XCalibur QuanBrowser 2.2 (Thermo Fisher Scientific) using a 5 ppm mass tolerance and referencing an in-house retention time library of chemical standards. […]

[10] = system: U937 cells; assay: Differentiation of U937 cells by flow cytometry; assay type: cell-based, human; settings: 10^-3 to 10^-7 M, FIG. 4C
Protocol: (§6) That exogenous nucleotides can direct cancer cells to undergo differentiation was determined as follows. Thymidine was added at concentrations ranging from 10^−3 to 10^−7 M to 63.3 cells (FIG. 4A), THP1 cells (FIG. 4B) and U937 cells (FIG. 4C). Cell differentiation was monitored by CD11b+/CD16+ expression, and by CD11b+ total expression.
as §3
(§7) The Lys-GFP-ER-HoxA9 cells or human leukemia cell lines were grown in round-bottom tissue-culture treated plates. Following a 4-day incubation with nucleotides, cells were incubated with antibodies, washed, incubated with FACS buffer containing DAPI, and analyzed by flow cytometry. Viability was assessed by forward and side scatter as well as by DAPI exclusion. For the Lys-GFP-ER-HoxA9 63.3 cells, differentiation was assessed by GFP and staining with an anti-CD11b-APC antibody (final concentration of 1:400; Clone M1/70, Biolegend). […]

[11] = system: 63.3 cells; assay: Differentiation of Lys-GFP-ER-HoxA9 63.3 cells by flow cytometry; assay type: cell-based; settings: 10^-3 to 10^-7 M, FIG. 4A
Protocol: as §6, §3, §7

[12] = system: THP1 cells; assay: Differentiation of THP1 cells by flow cytometry; assay type: cell-based, human; settings: 10^-3 to 10^-7 M, FIG. 4B
Protocol: as §6, §3, §7

[13] = A549 cells, approximate concentration, read-out: Added nucleoside/base concentration that slows proliferation by half
[14] = A2780 cells, approximate concentration, read-out: Added nucleoside/base concentration that slows proliferation by half
[15] = NCI-H1299, H1299 cells, approximate concentration, read-out: Added nucleoside/base concentration that slows proliferation by half
[16] = MDA-MB-468 cells, approximate concentration, read-out: Added nucleoside/base concentration that slows proliferation by half
[17] = 143B cells, approximate concentration
[18] = U2OS cells, approximate concentration

| pIC50 [1, 13] | pIC50 [2, 14] | pIC50 [3, 15] | pIC50 [4, 16] | pIC50 [8, 18] | Compound | pIC50 [5, 17] | also measured |
| --- | --- | --- | --- | --- | --- | --- | --- |
| 2.92 | 3.52 | 3.10 | 3.65 | 3.22 | Nc1ncnc2c1ncn2[C@H]1C[C@H](O)[C@@H](CO)O1 [dA, deoxyadenosine] | 3.22 | – |
| 2.68 | 3.00 | 2.96 | 3.10 | 3.02 | Nc1ncnc2c1ncn2[C@@H]1O[C@H](CO)[C@@H](O)[C@H]1O [A, adenosine] | 3.00 | – |

More lines, now with the values behind:

| Compound | pIC50 [1, 13] | pIC50 [2, 14] | pIC50 [3, 15] | pIC50 [4, 16] | pIC50 [8, 18] | pIC50 [5, 17] | also measured |
| --- | --- | --- | --- | --- | --- | --- | --- |
| Nc1nc2nc[nH]c2c(=O)[nH]1 [G, guanine] | – | – | – | – | – | – | pIC50 ([1]; A549, read-out: Added nucleoside/base concentration that slows proliferation by half): 4.10; pIC50 ([2]; A2780, read-out: Added nucleoside/base concentration that slows proliferation by half): 4.00; pIC50 ([3]; NCI-H1299, read-out: Added nucleoside/base concentration that slows proliferation by half): 3.70; pIC50 ([4]; MDA-MB-468, read-out: Added nucleoside/base concentration that slows proliferation by half): 3.82; pIC50 ([5]; 143B): 3.92; DNA damage by comet tail assay [6]: minor increases in DNA damage; Phosphorylation of Chk1 and Chk2 (replication stress response) [7]: robust phosphorylation; pIC50 ([8]; U2OS): 3.60; Intracellular pools of guanylate nucleotides (GTP/GDP/GMP) ([9]; FIGS. 2A and 3A-3B): dramatically increased; Intracellular levels of adenylate nucleotides (ATP/ADP/AMP) ([9]; FIGS. 2B and 3C-3D): decreased |
| Nc1ccn([C@H]2C[C@H](O)[C@@H](CO)O2)c(=O)n1 [Deoxycytidine] | – | – | – | – | – | – | Effect on proliferation ([1]; A549 cells, FIG. 1B, higher concentrations): blocked proliferation |
| Cc1cn([C@H]2C[C@H](O)[C@@H](CO)O2)c(=O)[nH]c1=O [T, thymidine] | 3.30 | 3.52 | 3.15 | 3.82 | 3.30 | – | Cell differentiation (CD11b+/CD16+ and CD11b+ total expression) [10]: induced cell differentiation in a concentration dependent manner; Cell differentiation (CD11b+ markers) [11]: induced cell differentiation in a concentration dependent manner; Cell differentiation (CD11b+/CD16+ and CD11b+ total expression) [12]: induced cell differentiation in a concentration dependent manner |
